Values quoted from earlier work as cited in patent US20030108586A1, “Method of long-term reversible contraception for animals” (priority 2001, published 2003).
Where two headings read alike, the source gives them in different places.

SMILES	adverse effects (bitches)	adverse effects (synthetic progestins)
C[C@@H]1CC2=CC(=O)CC[C@@H]2[C@H]2CC[C@@]3(C)[C@@H](CC[C@]3(C)O)[C@@H]21 [Mibolerone™, Mibolerone]	clitoral hypertrophy	
CC(=O)O[C@]1(C(C)=O)CC[C@H]2[C@@H]3C=C(C)C4=CC(=O)CC[C@]4(C)[C@H]3CC[C@@]21C [Ovabant™, megestrol acetate]		development of mammary tumors as well as endometrial hyperplasia
